Tests used:
[1] = test system: AGS human gastric cancer cell line with KRAS G12D mutation; test: Cell proliferation inhibition experiment, 3D CellTiter-Glo, AGS; format: cell-based; details: AGS cells, 3D spheroid, 5 days
Description: (§1) AsPC-1 was purchased from ATCC, Article No.: CRL-1682; AGS was purchased from ATCC, Article No.: CRL-1739; RPMI1640 was purchased from Gibco, Article No.: 11875-093 2235123; F12K was purchased from Gibco, Article No.: 21127-022; FBS was purchased from Gibco, Article No.: 10099-141C; the trypsin (containing EDTA) was purchased from Gibco, Article No.: 25200-072; CellTiter Glo-3D was purchased from Progema, Article No.: G9683; the 384-well spheroid plate was purchased from Corning, Article No.: 3830; the white-bottom opaque 384-well plate was purchased from Corning, Article No.: 3570; the cell counter was purchased from CHEMOMETEC, model: NC-200; the microplate reader was purchased from PerkinElmer, model: Envison;
(§2) AsPC-1, an endogenous human pancreatic cancer cell AsPC-1 with KRAS^G12D mutation, was cultured in RPMI-1640 medium containing 10% FBS. AGS, a human gastric cancer cell line with KRAS^G12D mutation, was cultured in F-12K medium containing 10% FBS. Cells in logarithmic growth period were digested with trypsin (containing EDTA), collected and counted. 800 AsPC-1 cells/well or 400 […] were inoculated in a 384-well spheroid plate, and cultured overnight in an incubator with 5% CO2 to establish a 3D cell model. 1000× compound stock solutions with gradient concentrations of 3.16 times were prepared with DMSO, and 100-fold diluted to 10× compound stock solutions with the culture medium. The 10× compound stock solution was added to each cell culture well on the second day after cell inoculation, to give a final concentration of 1× and DMSO content of 0.1%. DMSO was used as the control, and the culture medium was used as the blank. After the compound was added, the cells were cultured for 5 days. 30 μl CellTiter-Glo working solution was added to each well, and mixed uniformly. The cells were incubated for 30 min, and allowed to stand at room temperature for 30 min. 40 μl of the mixture was transferred to a white-bottom opaque 384-well plate, and the luminescence was read on a microplate reader. The inhibition rate on cell proliferation was calculated by a formula: IR (%)=(RLU of control−RLU of compound)/(RLU of control−RLU of blank)×100%. The gradient concentrations of the compound and the corresponding inhibition rates were fitted by using XLFit four-parameter method, and the IC50 value was calculated. […] The results of some exemplary compounds are shown in Table 2 below (—means not tested).

[2] = test system: AsPC-1 human pancreatic cancer cell with KRAS G12D mutation; test: Cell proliferation inhibition experiment, 3D CellTiter-Glo, AsPC-1; format: cell-based; details: AsPC-1 cells, 3D spheroid, 5 days
Description: as §1, §2

AGS p-ERK = test: Cell assay for p-ERK (HTRF, Advance ERK phospho-T202/Y204 kit); format: cell-based, human; details: AGS cells (KRAS G12D), 3 hrs with compound, inhibition of p-ERK level
Method: AGS was purchased from ATCC, Article No.: CRL-1739; F12K was purchased from Gibco, Article No.: 21127-022; FBS was purchased from Gibco, Article No.: 10099-141C; the trypsin (containing EDTA) was purchased from Gibco, Article No.: 25200-072; DMSO was purchased from VWRAMRESCO, Article No.: 0231-500ML; the 96-well cell culture plate was purchased from Corning, Article No.: 3599; the white-bottom opaque 96-well plate was purchased from Cisbio, Article No.: 66PL96025; Advance ERK phospho-T202/Y204 kit was purchased from Cisbio, Article No.: 64AERPEH; the cell counter was purchased from CHEMOMETEC, model: NC-200; the microplate reader was purchased from PerkinElmer, model: Envison.
AGS, an endogenous human gastric adenocarcinoma cell line with KRAS^G12D mutation, was cultured in F12K+10% FBS medium. On the first day of the experiment, cells in logarithmic growth period were digested with trypsin (containing EDTA), collected and counted, and about 20,000 cells/well were inoculated in a 96-well cell culture plate and cultured overnight in an incubator with 5% CO2. 1000× compound stock solutions with gradient concentrations of 3.16 times were prepared with DMSO, and 200-fold diluted to 5× compound stock solutions with the above culture medium. The 5× compound stock solution was added to each cell culture well on the second day after cell inoculation, to give a final concentration of 1× and DMSO content of 0.1%. DMSO was used as experimental control. After adding the compound, the cells were continuously cultured for 3 hrs. Then, the culture medium in the well was removed, and 50 μl/well of cell lysis buffer (from Advanced ERK phospho-T202/Y204 kit, the same hereinafter) was added, and mixed uniformly. The cells were cultured for 30 min. Then 16 μl of the mixture was transferred to a white-bottom opaque 96-well plate, and 16 μl of the cell lysis buffer was added to an additional well and used as a blank. After that, 4 μl of p-ERK HTRF antibody mixed solution (from Advanced ERK Phos Pho-T202/Y204 Kit) was added to each well. After incubation for 4 hrs, the fluorescence value (RLU) of HTRF was read on a microplate reader. The inhibition rate of the compound on p-ERK level was calculated by the formula IR (%)=(RLU of control−RLU of compound)/(RLU of control−RLU of blank)×100%. The compound concentration and the corresponding inhibition rate on p-ERK level in the cells were fitted by using Prism 8 four-parameter method, and the IC50 value was calculated.

Structure (SMILES) | IC50 ([1]; Homo sapiens, 120 h) [nM] | IC50 ([2]; Homo sapiens, ASPC1, 120 h) [nM] | IC50 (AGS p-ERK; Homo sapiens) [nM] | IC50 [1] [nM] | IC50 [2] [nM] | IC50 (AGS p-ERK) [nM]
Cc1cc(-c2nc3c4c(nc(OCC5(CN6CCOCC6)CC5)nc4c2F)N2C[C@H]4CC[C@H](N4)C2[C@H](C)O3)c(C)c(N)c1C1CC1 (stereo partly drawn) [Z716] | 48.6 | 89.2 | 81.8 | – | – | –
C[C@@H]1Oc2nc(-c3cc(N)cc4cccc(Cl)c34)c(F)c3nc(OC[C@]45CCCN4CC(F)(F)C5)nc(c23)N2C[C@H]3CC[C@H](N3)[C@@H]12 [Z737, 5-chloro-4-((5S,5aS,6S,9R)-12-(((R)-2,2-difluorotetrahydro-1H-pyrrolizin-7a(5H)-yl)methoxy)-1-fluoro-5-methyl-5a,6,7,8,9,10-hexahydro-5H-4-oxa-3,10a,11,13,14-pentaaza-6,9-methanonaphtho[1,8-ab]hepten-2-yl)naphthalen-2-amine] | – | – | – | 34 | 44.2 | 15.3
C#Cc1cccc2cc(N)cc(-c3nc4c5c(nc(OCC67CC(F)(F)CN6CCC7=C)nc5c3F)N3C[C@H]5CC[C@H](N5)[C@H]3[C@H](C)O4)c12 (stereo partly drawn) [Z738] | 44.2 | 29.9 | 12.7 | – | – | –
C#Cc1c(F)ccc2cc(N)cc(-c3nc4c5c(nc(OC[C@]67CCCN6CC(F)(F)C7)nc5c3F)N3C[C@H]5CC[C@H](N5)[C@H]3[C@H](C)O4)c12 [Z739, 4-((5S,5aS,6S,9R)-12-(((R)-2,2-difluorotetrahydro-1H-pyrrolizin-7a(5H)-yl)methoxy)-1-fluoro-5-methyl-5a,6,7,8,9,10-hexahydro-5H-4-oxa-3,10a,11,13,14-pentaaza-6,9-methanonaphtho[1,8-ab]hepten-2-yl)-5-ethynylnaphthalen-2-amine] | 11 | 6.16 | 2.63 | – | – | –
C[C@@H]1Oc2nc(-c3cc(N)cc4ccc(F)c(F)c34)c(F)c3nc(OC[C@]45CCCN4CC(F)(F)C5)nc(c23)N2C[C@H]3CC[C@H](N3)[C@@H]12 [Z740, 4-((5S,5aS,6S,9R)-12-(((R)-2,2-difluorotetrahydro-1H-pyrrolizin-7a(5H)-yl)methoxy)-1-fluoro-5-methyl-5a,6,7,8,9,10-hexahydro-5H-4-oxa-3,10a,11,13,14-pentaaza-6,9-methanonaphtho[1,8-ab]heptan-2-yl)-5,6-difluoronaphthalen-2-amine] | 18 | 26 | 6.08 | – | – | –
C#Cc1cccc2cc(N)cc(-c3nc4c5c(nc(OCC67CCCN6CCC7(F)F)nc5c3F)N3C[C@H]5CC[C@H](N5)[C@H]3[C@H](C)O4)c12 (stereo partly drawn) [Z741, 4-((5S,5aS,6S,9R)-12-((1,1-difluorotetrahydro-1H-pyrrolizin-7a(5H)-yl)methoxy)-1-fluoro-5-methyl-5a,6,7,8,9,10-hexahydro-5H-4-oxa-3,10a,11,13,14-pentaaza-6,9-methanonaphtho[1,8-ab]hepten-2-yl)-5-ethynylnaphthalen-2-amine] | 19.2 | 10.1 | 4.06 | – | – | –
C#Cc1cccc2cc(N)cc(-c3nc4c5c(nc(OCC(C)C(O)C(F)F)nc5c3F)N3C[C@H]5CC[C@H](N5)[C@H]3[C@H](C)O4)c12 (stereo partly drawn) [Z742] | 156 | 312 | 52 | – | – | –
C[C@@H]1Oc2nc(-c3cc(N)cc(Cl)c3C(F)(F)F)c(F)c3nc(OC[C@]45CCCN4CC(F)(F)C5)nc(c23)N2C[C@H]3CC[C@H](N3)[C@@H]12 [Z743, 3-chloro-5-((5S,5aS,6S,9R)-12-(((R)-2,2-difluorotetrahydro-1H-pyrrolizin-7a(5H)-yl)methoxy)-1-fluoro-5-methyl-5a,6,7,8,9,10-hexahydro-5H-4-oxa-3,10a,11,13,14-pentaaza-6,9-methanonaphtho[1,8-ab]hepten-2-yl)-4-(trifluoromethyl) aniline] | 1.95 | 2.16 | 0.84 | – | – | –
C#Cc1cccc2cc(N)cc(-c3nc4c5c(nc(OCC6(CN7CCC(=C(F)F)C7)CC6)nc5c3F)N3C[C@H]5CC[C@H](N5)[C@H]3[C@H](C)O4)c12 [Z744] | 2.86 | 1.99 | 0.51 | – | – | –
C#Cc1cccc2cc(N)cc(-c3nc4c5c(nc(OCC67CCCN6CCC7=C(F)F)nc5c3F)N3C[C@H]5CC[C@H](N5)[C@H]3[C@H](C)O4)c12 (stereo partly drawn) [Z745, 4-((5S,5aS,6S,9R)-12-((1-(difluoromethylene)tetrahydro-1H-pyrrolizin-7a(5H)-yl)methoxy)-1-fluoro-5-methyl-5a,6,7,8,9,10-hexahydro-5H-4-oxa-3,10a,11,13,14-pentaaza-6,9-methanonaphtho[1,8-ab]hepten-2-yl)-5-ethynylnaphthalen-2-amine] | 3.95 | 4.48 | 0.84 | – | – | –
C#Cc1cccc2cc(N)cc(-c3nc4c5c(nc(OCC67CC(F)(F)CN6CC=C7C)nc5c3F)N3C[C@H]5CC[C@H](N5)[C@H]3[C@H](C)O4)c12 (stereo partly drawn) [Z748] | 23.1 | 12.9 | 4.63 | – | – | –
C#Cc1c(F)ccc2cccc(-c3nc4c5c(nc(OC[C@]67CCCN6CC=C7C)nc5c3F)N3C[C@H]5CC[C@H](N5)[C@H]3[C@H](C)O4)c12 [Z749] | 7.13 | 11.5 | 1.91 | – | – | –
C#Cc1cccc2cc(N)c(F)c(-c3nc4c5c(nc(OCC6(CN7CCOCC7)CC6)nc5c3F)N3C[C@H]5CC[C@H](N5)[C@H]3[C@H](C)O4)c12 [Z957, 5-ethynyl-3-fluoro-4-((5S,5aS,6S,9R)-1-fluoro-5-methyl-12-((1-(morpholinemethyl)cyclopropyl)methoxy)-5a,6,7,8,9,10-hexahydro-5H-4-oxa-3,10a,11,13,14-pentaaza-6,9-methanonaphtho[1,8-ab]hepten-2-yl)naphthalen-2-amine] | 7.61 | 6.51 | 0.97 | – | – | –
C#Cc1c(F)ccc2cccc(-c3cc4nc(OC[C@]56CCCN5CCC6=C)nc5c4c(n3)O[C@@H](C)[C@@H]3[C@@H]4CC[C@H](CN53)N4)c12 [Z958, (5S,5aS,6S,9R)-2-(8-ethynyl-7-fluoronaphthalen-1-yl)-5-methyl-12-(((R)-1-methylenetetrahydro-1H-pyrrolizin-7a(5H)-yl)methoxy)-5a,6,7,8,9,10-hexahydro-5H-4-oxy-3,10a,11,13,14-pentaaza-6,9-methanonaphtho[1,8-ab]heptene] | 45.6 | 69.5 | 29.2 | – | – | –

Source: patent US20260109714A1, “PYRIMIDINE-FUSED RING COMPOUND, AND PREPARATION METHOD THEREFOR AND USE THEREOF” (GENFLEET THERAPEUTICS (SHANGHAI) INC., priority 2022, published 2026)
